According to the NIST ThermoML archive (doi:10.1016/j.jct.2017.12.023):
± gives the expanded uncertainty stated by the source.

Assay: refractive index (Na D-line) (dimensionless); xn = mol fraction of the nth substance listed
Conditions: 100 kPa, Liquid, Standard Abbe refractometry

CCOS(=O)(=O)[O-].CCn1cc[n+](C)c1 [1-ethyl-3-methylimidazolium ethyl sulfate] + CN1CCCC1=O
refractive index
Conditions	x1 = 0.1009	x1 = 0.2012	x1 = 0.3021	x1 = 0.4012	x1 = 0.4973	x1 = 0.596	x1 = 0.6998	x1 = 0.7961	x1 = 0.8821	x1 = 1
288.15 K	1.47616 ± 0.00069	1.47863 ± 0.00069	1.47981 ± 0.00069	1.48047 ± 0.00069	1.48086 ± 0.00069	1.48094 ± 0.00069	1.48099 ± 0.00069	1.48127 ± 0.00069	1.48147 ± 0.00069	1.48155 ± 0.00069
293.15 K	1.47418 ± 0.00069	1.47679 ± 0.00069	1.47807 ± 0.00069	1.47881 ± 0.00069	1.47925 ± 0.00069	1.47939 ± 0.00069	1.47951 ± 0.00069	1.47983 ± 0.00069	1.48006 ± 0.00069	1.48018 ± 0.00069
298.15 K	1.47223 ± 0.00069	1.47496 ± 0.00069	1.47633 ± 0.00069	1.47714 ± 0.00069	1.47766 ± 0.00069	1.47787 ± 0.00069	1.47804 ± 0.00069	1.47841 ± 0.00069	1.47867 ± 0.00069	1.47882 ± 0.00069
303.15 K	1.47026 ± 0.00069	1.47313 ± 0.00069	1.4746 ± 0.00069	1.47547 ± 0.00069	1.47608 ± 0.00069	1.47635 ± 0.00069	1.47659 ± 0.00069	1.47701 ± 0.00069	1.47728 ± 0.00069	1.47746 ± 0.00069
308.15 K	1.46833 ± 0.00069	1.4713 ± 0.00069	1.47285 ± 0.00069	1.47384 ± 0.00069	1.47453 ± 0.00069	1.47488 ± 0.00069	1.47517 ± 0.00069	1.47561 ± 0.00069	1.47592 ± 0.00069	1.47611 ± 0.00069
